The values that follow are results of earlier work, collected in US7229642B2, “Amino acid modulated extended release dosage form” (Scolr, Inc., priority 1999, dated 2007).

Where two headings read alike, the source gives them in different places.

The conditions of the data set: for HYDROPHOBIC VALUE: hydropathy scale of Pliska et al., J. Chromatog. 216, 79, 1981, glycine = 0; for CHARACTERIZATION (hydropathy): hydropathy characteristic in words.

For the molecule `C[C@H](N)C(=O)O` [Alanine], the “HYDROPHOBIC VALUE” is on record as 0.35.

Consider `NC(=O)C[C@H](N)C(=O)O` [Asparagine], for which the “HYDROPHOBIC VALUE” is recorded as −0.99.

Turning to `N[C@@H](CC(=O)O)C(=O)O` [Aspartic acid], the “CHARACTERIZATION (hydropathy)” value was “strongly hydrophilic” and the “HYDROPHOBIC VALUE” is given as −2.15.

For `N[C@@H](CS)C(=O)O` [Cysteine], the “HYDROPHOBIC VALUE” is recorded as 0.76.

As for `NCC(=O)O` [Glycine], the “CHARACTERIZATION (hydropathy)” value was “Neutral, Balanced” and the “HYDROPHOBIC VALUE” is listed as 0. In addition, where the note is “listed as glycine”, the “CHARACTERIZATION (hydropathy)” value is on record as “neutral”.

Turning to `N[C@@H](Cc1c[nH]cn1)C(=O)O` [Histidine], the “HYDROPHOBIC VALUE” was −0.65.

Regarding `CC[C@H](C)[C@H](N)C(=O)O` [Isoleucine], the “CHARACTERIZATION (hydropathy)” value is “Strongly Hydrophobic” and the “HYDROPHOBIC VALUE” was 1.83. For the same molecule, the “CHARACTERIZATION (hydropathy)” value (listed as iso-leucine) is recorded as “strongly hydrophobic”.

As to `NCCCC[C@H](N)C(=O)O` [Lysine], the “HYDROPHOBIC VALUE” is −1.54.

In the case of `CSCC[C@H](N)C(=O)O` [Methionine], the “CHARACTERIZATION (hydropathy)” value is “Moderately Hydrophobic” and the “HYDROPHOBIC VALUE” is on record as 1.10.

With `N[C@@H](Cc1ccccc1)C(=O)O` [Phenylalanine], the “HYDROPHOBIC VALUE” was 1.69.

As to `O=C(O)[C@@H]1CCCN1` [Proline], the “HYDROPHOBIC VALUE” is 0.84.

Turning to `N[C@@H](CO)C(=O)O` [Serine], the “HYDROPHOBIC VALUE” is −0.63.

As to `C[C@@H](O)[C@H](N)C(=O)O` [Threonine], the “CHARACTERIZATION (hydropathy)” value was “Weakly Hydrophilic” and the “HYDROPHOBIC VALUE” is on record as −0.27.

Turning to `N[C@@H](Cc1c[nH]c2ccccc12)C(=O)O` [Tryptophan], the “HYDROPHOBIC VALUE” is on record as 1.35.

Turning to `N[C@@H](Cc1ccc(O)cc1)C(=O)O` [Tyrosine], the “CHARACTERIZATION (hydropathy)” value is on record as “Weakly Hydrophobic” and the “HYDROPHOBIC VALUE” is on record as 0.39.

As to `CC(C)[C@H](N)C(=O)O` [Valine], the “HYDROPHOBIC VALUE” was 1.32.
